Entries after “also recorded” stand apart in the source; their conditions may differ.
Key:
[1] = tested on: subcutaneous PC9 model in nude mice; assay: PC9 xenograft tumour growth inhibition and re-growth in vivo
Protocol: Tumour growth inhibition following dosing of vehicle, osimertinib 25 mg/kg PO QD, AZD5582 2 mg/kg IV QW, or the combination of the two agents for 3 weeks followed by a period of re-growth in the subcutaneous, PC9 model in nude mice. Data are represented as mean ±SEM (n=8 per group) or as tumour volume of individual mouse.
Tumour growth inhibition following dosing of vehicle for 3 weeks, osimertinib 25 mg/kg PO QD for 6 weeks, or osimertinib 25 mg/kg PO QD for 3 weeks followed by the combination of osimertinib 25 mg/kg PO QD and AZD5582 2 mg/kg IV QW for 3 weeks followed by a period of re-growth in the subcutaneous, PC9 model in nude mice. Data are represented as mean±SEM (n=8 per group) or as tumour volume of individual mouse.

[2] = tested on: PC9, HCC2935 and NCI-H1975 cells; assay: Incucyte cell confluence: formation and regrowth of osimertinib drug tolerant persister cells; type: cell-based, human
Protocol: HCC2935, NCI-H1975 and PC9 cells were treated with osimertinib, AZD5582 or the combination of the two agents for 10 days, after which time drug was removed to allow regrowth of the cells. Cell confluence was measured on the Incucyte imaging platform as a surrogate for cell number.
Representative images were taken from the cell growth experiments in PC9 and HCC2935 cell lines described in FIG. 4. Cells treated for 10 days with either osimertinib alone or osimertinib in combination with AZD5582, at which time drug was removed from 7 days.
FIG. 6: osimertinib DTPs are sensitive to Smac mimetic treatment. Parental PC9 cells were treated with the combination of osimertinib and 4 distinct Smac mimetics to determine the rate of DTP survival and re-growth. Cell confluence was measured on the Incucyte imaging platform as a surrogate for DTP number.
PC9 is a cell line derived from human lung adenocarcinoma harbouring the activating mutation in EGFR del E746_A750 (Ex19-del). HCC2935 is a cell line derived from a pleural effusion of human lung adenocarcinoma harbouring the activating mutation in EGFR del E746_T751 (Ex19-del). HCC2279 is a cell line derived from a human lung adenocarcinoma bearing the activating mutation in EGFR del Em746_A750. HCC4006 is a cell line derived from a human lung adenocarcinoma bearing the activating mutation in EGFR del E746_A750. […]

[3] = tested on: EGFRm parental cells (HCC2279, HCC2935, HCC4006, II-18, NCI-H1975 and PC9); assay: Incucyte Caspase-3/7 apoptosis assay in EGFRm parental cell lines; type: cell-based, human; conditions: panel of 6 EGFRm cell lines; osimertinib 160 nM + Smac mimetic 1 μM vs osimertinib monotherapy; 48 h, normalised to DMSO
Protocol: Data was calculated as the number of apoptotic events divided by cell confluence, and normalised to the values for DMSO control. Data are presented on a log scale to better visualize all cell lines.
FIG. 3: Multiple Smac mimetic molecules enhance osimertinib-induced apoptosis in NCI-H1975 and PC9 cells Caspase-3/7 activation, a direct readout of apoptotic initiation was measured after 48 h of treatment with either osimertinib monotherapy or its combination with 4 distinct Smac mimetic small molecules in NCI-H1975 and PC9 cells. Data was calculated as the number of apoptotic events divided by cell confluence, and normalised to the values for DMSO control.
PC9 is a cell line derived from human lung adenocarcinoma harbouring the activating mutation in EGFR del E746_A750 (Ex19-del). HCC2935 is a cell line derived from a pleural effusion of human lung adenocarcinoma harbouring the activating mutation in EGFR del E746_T751 (Ex19-del). […]
EGFRm parental cells (HCC2279, HCC2935, HCC4006, II-18, NCI-H1975 and PC9) were seeded in 96 well plated at a concentration of 5000 cells/well. […] Cells were then placed on the Incucyte S3 imaging system and both cell confluence and green fluorescence were measured, every 4 hours. After 96 h the experiment was terminated, and apoptosis values calculated by dividing the number of individual green points (apoptosis events) by cell confluence. […]

[4] = tested on: c-IAP1 and c-IAP2 mRNA (BIRC2 and BIRC3) in PC9, HCC2935 and NCI-H1975 cell lines; assay: RNAseq gene expression of c-IAP1 and c-IAP2 mRNA in EGFRm cell lines after osimertinib treatment; type: cell-based, human; conditions: osimertinib acute (24 h) or chronic (14 d, DTP) vs untreated (DMSO), particularly chronic schedule
Protocol: FIG. 1: A subset of EGFRm NSCLC cell lines upregulate the expression of c-IAP1 and c-IAP2 mRNA after prolonged treatment with osimertinib. RNA sequencing (RNAseq) was performed in cells chronically treated with osimertinib (14 days) and compared to untreated (DMSO) or acutely treated (24 h) cells. Levels of BIRC2 mRNA (c-IAP1) and BIC3 mRNA (c-IAP2) were plotted on a log 2 scale.
PC9 is a cell line derived from human lung adenocarcinoma harbouring the activating mutation in EGFR del E746_A750 (Ex19-del). HCC2935 is a cell line derived from a pleural effusion of human lung adenocarcinoma harbouring the activating mutation in EGFR del E746_T751 (Ex19-del). HCC2279 is a cell line derived from a human lung adenocarcinoma bearing the activating mutation in EGFR del Em746_A750. HCC4006 is a cell line derived from a human lung adenocarcinoma bearing the activating mutation in EGFR del E746_A750. II-18 is a cell line derived from a human lung adenocarcinoma bearing the activating mutation in EGFR L858R. NCI-H1975 is a cell line derived from a human lung adenocarcinoma bearing the activating mutation in EGFR L858R and the gatekeeper mutation in EGFR T790M.
The purpose of this experiment was to use RNAseq to analyse gene expression in EGFRm cell lines treated both chronically (14 d) or acutely (24 h) with osimertinib.

Row | SMILES | tumour growth inhibition / regrowth after treatment release ([1]; minimal residual disease: osimertinib 21 days, then osimertinib + AZD5582 2 mg/kg IV QW 21 days, vs osimertinib alone 42 days, 2 mg/kg) | tumour growth inhibition / regrowth after treatment release ([1]; osimertinib 25 mg/kg PO QD + AZD5582 2 mg/kg IV QW for 21 days vs osimertinib alone for 21 days) | percentage confluency (a measure of cell growth) ([2]; PC9, HCC2935 or NCI-H1975, 10 days combination with osimertinib (500 nM) then drug removal, vs 10 days osimertinib alone) | regrowth of cells after drug removal (representative images) ([2]; PC9 and HCC2935, 10 days osimertinib + AZD5582, then drug removed for 7 days) | number of apoptotic events (Caspase-3/7 activation) normalised to cell confluence [3] | mRNAs coding for c-IAP1 and c-IAP2 (BIRC2 and BIRC3) expression [4]
1 | CN[C@@H](C)C(=O)N[C@H](C(=O)N1CCC[C@H]1C(=O)N[C@H]1c2ccccc2C[C@H]1OCC#CC#CCO[C@@H]1Cc2ccccc2[C@@H]1NC(=O)[C@@H]1CCCN1C(=O)[C@@H](NC(=O)[C@H](C)NC)C1CCCCC1)C1CCCCC1 [AZD5582] | delay of regrowth; also recorded: enhances the antiproliferative effects of osimertinib | delay of regrowth; also recorded: enhances the antiproliferative effects of osimertinib | lower percentage confluency; also recorded: enhances the antiproliferative effects of osimertinib | fail to regrow after drug removal | enhances osimertinib-induced apoptosis | 
2 | C=CC(=O)Nc1cc(Nc2nccc(-c3cn(C)c4ccccc34)n2)c(OC)cc1N(C)CCN(C)C [osimertinib, N-(2-{2-dimethylaminoethyl-methylamino}-4-methoxy-5-{[4-(1-methylindol-3-yl)pyrimidin-2-yl]amino}phenyl) prop-2-enamide] |  |  |  |  |  | significantly upregulated

Source: patent US20230056604A1, “EPIDERMAL GROWTH FACTOR RECEPTOR TYROSINE KINASE INHIBITORS FOR THE TREATMENT OF CANCER” (AstraZeneca AB, priority 2020, published 2023)
